pIC50: −log10 of the molar value. Bounds are passed on as bounds.

Holding throughout (format): biochemical
The target in one assay is JAK3-JH1JH2 (Homo sapiens (Human), UniProt P52333). As to the kind of experiment: Enzymatic inhibition assay (RapidFire HTMS), JAK3. As to conditions: 150 μM ATP, 40 μM substrate. The text has this:
(§1) LC/MS grade Water and Acetonitrile (ACN), were purchased from HoneyWell, Burdick & Jackson (Muskegon, Mich., USA). Dimethylsulfoxide 99.8% (DMSO) and Trifluoroacetic Acid 99.5% (TFA) were purchased from EMD Chemical (Gibbstown, N.J., USA). Adenosine triphosphate (ATP), 4-Morpholinepropanesulfonic acid (MOPS), Magnesium chloride (MgCl2), ethylenediaminetetraacetic acid (EDTA), dithiothreitol (DTT), formic acid >95% (FA) and Tween-20 were purchased from Sigma (St Louis, Mo., USA). 384-well polypropylene plates, Cat #781280 were purchased from Greiner (Monroe, N.C.), RapidFire™ cartridge A C4 Column (Agilent Technologies, Santa Clara, Calif.).
(§2) The HTMS experiments were performed in positive ionization mode on a RapidFire 300 instrument (Agilent Technologies, Santa Clara, Calif.), coupled with an ABSiex QTrap 4000 system with an Electrospray Ionization source (RF-MS) (Concord, ON, Canada). […] The entire system was operated using the RapidFire software interfaced with Analyst software for the mass spectrometer.
(§3) 11-point dosing series were made for each compound by serially diluting 1:3 or 1:4 in DMSO, with point 12 being a DMSO control. From the serial dilution plates, sample was transferred to a 384 wells assay plate (#781280, Greiner, Monroe, N.C.) using Labcyte Echo (Sunnyvale, Calif.), or Biosero ATS (San Diego, Calif.). The compounds were tested in duplicate. Column 12 was used for positive controls, and column 24 contained negative controls with no enzyme added. A compound from our internal collection, with inhibitory activity for JAK isoforms, was used as a reference compound. […] The Tyk2 enzyme was pre-incubated with 2 mM ATP for 30 min prior to the reaction initiation. Immediately after the addition of the enzyme to the reaction mixture, the plate was centrifuged at 1000 rpm for 1 minute and incubated at 25° C. for 45 minutes for JAK 3 and 90 minutes for JAK1, JAK2 and Tyk2. The reaction was quenched by the addition of 20 μL of 0.5% TFA containing 0.15 μM of internal standard peptide using Multidrop Combi reagent dispenser (Thermo Scientific, Waltham, Mass.). […] After the quench, the assay plate was centrifuged at 3000 rpm for 3 minutes and sealed with pierceable aluminum foil (Cat #06644-001, Agilent) using a PlateLoc (Agilent Technologies, Santa Clara, Calif.). The plates then were transferred on to the RapidFire for the MS analysis. Compound inhibition was assessed by a decrease of the phosphorylated product levels in sample wells compared to the non-inhibited enzyme reaction.
(§4) The sample analysis on the RapidFire was performed using a mobile phase A consisting of Water/TFA/FA (100:0.01:0.1, v/v/v), a mobile phase B consisting of ACN/Water/TFA/FA (80:20:0.01:0.1, v/v/v). […] The samples were aspirated directly from the 384 assay plate and delivered onto RF-MS microscale solid-phase C4 extraction cartridge (Type A). The undesired component such as salt, cofactor, detergent and large protein were washed out and the retained analytes (substrate, product and IS) were coeluted directly onto the ABSiex Qtrap 4000 system.

The target of another assay is Tyk2-JH1JH2 (Homo sapiens (Human), UniProt P29597, C1142A/C936A). The experiment in a line: Enzymatic inhibition assay (RapidFire HTMS), Tyk2. As to conditions: 50 μM ATP, 200 μM substrate.
Description: as §1, §2
as §3, with “compound. The final concentration of DMSO was ≤0.25% in a 20 μL reaction.” for “compound.”
as §4

The target of a further assay is JAK1-JH1JH2 (Homo sapiens (Human), UniProt P23458). The experiment in a line: Enzymatic inhibition assay (RapidFire HTMS), JAK1. As to conditions: 12.5 μM ATP, 200 μM substrate; read-out: JAK1-JH2JH1 IC50.
Description: as §1, §2
as §3, with “compound. The final concentration of DMSO was ≤0.25% in a 20 μL reaction.” for “compound.”
as §4

Chain of JAK1-JH1JH2 (P23458 574-1154): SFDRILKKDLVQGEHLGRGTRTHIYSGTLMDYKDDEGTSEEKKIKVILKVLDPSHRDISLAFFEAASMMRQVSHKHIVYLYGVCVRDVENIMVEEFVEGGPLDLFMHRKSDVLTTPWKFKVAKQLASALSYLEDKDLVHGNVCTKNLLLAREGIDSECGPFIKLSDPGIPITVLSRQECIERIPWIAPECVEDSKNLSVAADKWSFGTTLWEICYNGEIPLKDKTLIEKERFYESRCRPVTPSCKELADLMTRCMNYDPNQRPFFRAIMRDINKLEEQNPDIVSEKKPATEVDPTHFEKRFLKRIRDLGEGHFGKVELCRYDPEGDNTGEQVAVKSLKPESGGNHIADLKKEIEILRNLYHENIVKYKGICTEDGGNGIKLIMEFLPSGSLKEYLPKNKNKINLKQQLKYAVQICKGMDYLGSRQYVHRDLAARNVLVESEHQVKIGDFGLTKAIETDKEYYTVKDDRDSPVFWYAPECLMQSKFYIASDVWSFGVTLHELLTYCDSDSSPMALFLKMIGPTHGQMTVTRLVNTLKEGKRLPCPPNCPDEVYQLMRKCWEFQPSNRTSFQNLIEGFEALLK
Chain of JAK3-JH1JH2 (P52333 512-1124): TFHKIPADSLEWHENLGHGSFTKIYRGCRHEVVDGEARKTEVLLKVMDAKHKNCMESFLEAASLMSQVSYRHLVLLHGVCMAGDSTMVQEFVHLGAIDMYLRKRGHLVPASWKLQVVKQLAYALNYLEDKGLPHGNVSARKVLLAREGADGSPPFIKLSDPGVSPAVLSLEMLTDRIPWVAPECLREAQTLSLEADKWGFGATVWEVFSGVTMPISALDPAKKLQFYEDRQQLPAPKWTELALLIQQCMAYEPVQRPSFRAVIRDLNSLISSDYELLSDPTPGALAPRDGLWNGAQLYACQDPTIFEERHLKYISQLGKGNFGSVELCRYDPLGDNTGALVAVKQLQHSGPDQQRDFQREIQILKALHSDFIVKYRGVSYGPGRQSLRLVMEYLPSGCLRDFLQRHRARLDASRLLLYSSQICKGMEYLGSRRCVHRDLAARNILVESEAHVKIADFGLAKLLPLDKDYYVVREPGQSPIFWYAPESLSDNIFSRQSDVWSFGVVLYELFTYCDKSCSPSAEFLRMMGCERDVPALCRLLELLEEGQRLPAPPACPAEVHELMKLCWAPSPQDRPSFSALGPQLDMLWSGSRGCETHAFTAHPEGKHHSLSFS
Chain of Tyk2-JH1JH2 (P29597 580-1182 C936A/C1142A): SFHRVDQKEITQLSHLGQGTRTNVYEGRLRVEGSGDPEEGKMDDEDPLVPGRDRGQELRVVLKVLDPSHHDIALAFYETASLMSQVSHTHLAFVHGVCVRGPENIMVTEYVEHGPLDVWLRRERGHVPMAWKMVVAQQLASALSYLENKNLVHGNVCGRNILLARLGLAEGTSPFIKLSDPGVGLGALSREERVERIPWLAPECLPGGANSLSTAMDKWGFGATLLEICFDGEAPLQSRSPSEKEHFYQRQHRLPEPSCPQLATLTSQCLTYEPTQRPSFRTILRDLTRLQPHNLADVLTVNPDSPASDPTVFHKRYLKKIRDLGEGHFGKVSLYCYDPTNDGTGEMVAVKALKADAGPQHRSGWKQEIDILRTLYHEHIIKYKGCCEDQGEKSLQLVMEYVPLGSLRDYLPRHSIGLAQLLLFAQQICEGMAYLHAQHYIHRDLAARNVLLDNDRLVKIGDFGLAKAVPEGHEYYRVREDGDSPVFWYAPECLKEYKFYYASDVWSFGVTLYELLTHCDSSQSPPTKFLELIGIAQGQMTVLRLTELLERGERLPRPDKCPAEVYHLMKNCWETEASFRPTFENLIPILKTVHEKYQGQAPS

As to `N#CC[C@H]1CC[C@H](n2c(CC(=O)N3CCC(C(F)(F)F)CC3)nc3cnc4[nH]ccc4c32)CC1` [Ex. 6, 2-((1r,4r)-4-(2-(2-Oxo-2-(4-(trifluoromethyl)piperidin-1-yl)ethyl)imidazo[4,5-d]pyrrolo[2,3-b]pyridin-1(6H)-yl)cyclohexyl)acetonitrile], the figures for the pIC50 on JAK3-JH1JH2 and against Tyk2-JH1JH2 were 7.31 and 9.40, respectively.
In the case of `N#CC[C@H]1CC[C@H](n2c(-c3cocn3)nc3cnc4[nH]ccc4c32)CC1` [Ex. 11, 2-((1r,4r)-4-(2-(Oxazol-4-yl)imidazo[4,5-d]pyrrolo[2,3-b]pyridin-1(6H)-yl)cyclohexyl)acetonitrile], the pIC50 against JAK3-JH1JH2 is 7.47; at JAK1-JH1JH2, 10.00; on Tyk2-JH1JH2 it was 8.92.
For the compound `CC(C)(CO)CNC(=O)Cc1nc2cnc3[nH]ccc3c2n1[C@H]1CC[C@H](CC#N)CC1` [Ex. 15, 2-(1-((1r,4r)-4-(Cyanomethyl)cyclohexyl)-1,6-dihydroimidazo[4,5-d]pyrrolo[2,3-b]pyridin-2-yl)-N-(3-hydroxy-2,2-dimethylpropyl)acetamide], the values for the pIC50 on JAK3-JH1JH2 and at JAK1-JH1JH2 were 7.26 and 10.00, respectively.
Turning to `N#CC[C@H]1CC[C@H](n2c(-c3cn[nH]n3)nc3cnc4[nH]ccc4c32)CC1` [Ex. 16, 2-((1r,4r)-4-(2-(2H-1,2,3-Triazol-4-yl)imidazo[4,5-d]pyrrolo[2,3-b]pyridin-1(6H)-yl)cyclohexyl)acetonitrile], the pIC50 at JAK3-JH1JH2 is 7.42; on JAK1-JH1JH2, 10.00; against Tyk2-JH1JH2 it was 8.43.
The like results for `N#CC[C@H]1CC[C@H](n2c(CC(=O)NCC34CC5CC(CC(O)(C5)C3)C4)nc3cnc4[nH]ccc4c32)CC1` [Ex. 21, 2-(1-((1r,4r)-4-(Cyanomethyl)cyclohexyl)-1,6-dihydroimidazo[4,5-d]pyrrolo[2,3-b]pyridin-2-yl)-N-(((1S,3R,5R,7S)-3-hydroxyadamantan-1-yl)methyl)acetamide] were, in that order, 7.26, 10.00 and 8.46.
The like results for `N#CC[C@H]1CC[C@H](n2c(Cc3ccn[nH]3)nc3cnc4[nH]ccc4c32)CC1` [Ex. 25, 2-((1r,4r)-4-(2-((1H-Pyrazol-5-yl)methyl)imidazo[4,5-d]pyrrolo[2,3-b]pyridin-1(6H)-yl)cyclohexyl)acetonitrile] were, in that order, 7.11, 10.00 and 8.28.
The like results for `N#CC[C@H]1CC[C@H](n2c(CC(=O)NCc3ccccc3)nc3cnc4[nH]ccc4c32)CC1` [Ex. 48, N-Benzyl-2-(1-((1r,4r)-4-(cyanomethyl)cyclohexyl)-1,6-dihydroimidazo[4,5-d]pyrrolo[2,3-b]pyridin-2-yl)acetamide] were, in that order, 6.71, 9.70 and 7.95.
Take `N#CC[C@H]1CC[C@H](n2c(CC(=O)NC34CC5CC(CC(O)(C5)C3)C4)nc3cnc4[nH]ccc4c32)CC1` [Ex. 52, 2-(1-((1r,4r)-4-(Cyanomethyl)cyclohexyl)-1,6-dihydroimidazo[4,5-d]pyrrolo[2,3-b]pyridin-2-yl)-N-((1s,3r,5R,7S)-3-hydroxyadamantan-1-yl)acetamide]: the pIC50 was 7.24 on JAK3-JH1JH2, 9.70 at JAK1-JH1JH2 and 8.36 against Tyk2-JH1JH2.
The like results for `N#CC[C@H]1CC[C@H](n2c(CC(=O)NCC3CCCCC3)nc3cnc4[nH]ccc4c32)CC1` [Ex. 69, 2-(1-((1r,4r)-4-(Cyanomethyl)cyclohexyl)-1,6-dihydroimidazo[4,5-d]pyrrolo[2,3-b]pyridin-2-yl)-N-(cyclohexylmethyl)acetamide] were, in that order, 6.95, 9.52 and 7.81.
The like results for `N#CC[C@H]1CC[C@H](n2c(CNC(=O)Nc3ccccc3)nc3cnc4[nH]ccc4c32)CC1` [Ex. 70, 1-((1-((1r,4r)-4-(Cyanomethyl)cyclohexyl)-1,6-dihydroimidazo[4,5-d]pyrrolo[2,3-b]pyridin-2-yl)methyl)-3-phenylurea] were, in that order, 6.97, 9.40 and 8.03.
The like results for `C[Si](C)(C)C1CCC(c2nc3cnc4[nH]ccc4c3n2[C@H]2CC[C@H](CC#N)CC2)CC1` (stereo partly drawn) [Ex. 100, 2-((1r,4r)-4-(2-(4-(Trimethylsilyl)cyclohexyl)imidazo[4,5-d]pyrrolo[2,3-b]pyridin-1(6H)-yl)cyclohexyl)acetonitrile] were, in that order, under 5.20, 7.14 and 5.64.
For the compound `N#CC[C@H]1CC[C@H](n2c(CN/C(Cc3ccccc3)=N\O)nc3cnc4[nH]ccc4c32)CC1` [Ex. 103, (EZ)—N-((1-((1r,4r)-4-(Cyanomethyl)cyclohexyl)-1,6-dihydroimidazo[4,5-d]pyrrolo[2,3-b]pyridin-2-yl)methyl)-N-hydroxy-2-phenylacetimidamide], the negative logarithm of the IC50 (pIC50) on JAK3-JH1JH2 is 6.34; at JAK1-JH1JH2, 9.30; at Tyk2-JH1JH2, 7.95.
As for `N#CC[C@H]1CC[C@H](n2c(CC(=O)Nc3ccc(C(O)(C(F)(F)F)C(F)(F)F)cc3)nc3cnc4[nH]ccc4c32)CC1` [Ex. 104, 2-(1-((1r,4r)-4-(Cyanomethyl)cyclohexyl)-1,6-dihydroimidazo[4,5-d]pyrrolo[2,3-b]pyridin-2-yl)-N-(4-(1,1,1,3,3,3-hexafluoro-2-hydroxypropan-2-yl)phenyl)acetamide], the pIC50 on JAK3-JH1JH2 is 6.53; on JAK1-JH1JH2, 9.30; against Tyk2-JH1JH2 it was 7.90.
The like results for `CC(C)(O)CNC(=O)c1nc2cnc3[nH]ccc3c2n1[C@H]1CC[C@H](CC#N)CC1` [Ex. 117, 1-((1r,4r)-4-(Cyanomethyl)cyclohexyl)-N-(2-hydroxy-2-methylpropyl)-1,6-dihydroimidazo[4,5-d]pyrrolo[2,3-b]pyridine-2-carboxamide] were, in that order, 6.56, 9.22 and 7.76.
The like results for `N#CC[C@H]1CC[C@H](n2c(-c3cn[nH]c3)nc3cnc4[nH]ccc4c32)CC1` [Ex. 123, 2-((1r,4r)-4-(2-(1H-pyrazol-4-yl)imidazo[4,5-d]pyrrolo[2,3-b]pyridin-1(6H)-yl)cyclohexyl)acetonitrile] were, in that order, 6.84, 9.15 and 7.94.
As to `N#CC[C@H]1CC[C@H](n2c(CO/N=C(\N)CN3CCCCC3)nc3cnc4[nH]ccc4c32)CC1` [Ex. 153, (Z*)—N′-((1-((1r,4r)-4-(Cyanomethyl)cyclohexyl)-1,6-dihydroimidazo[4,5-d]pyrrolo[2,3-b]pyridin-2-yl)methoxy)-2-(piperidin-1-yl)acetimidamide], the negative-log IC50 (pIC50) was 6.29 against JAK3-JH1JH2 and 8.43 on JAK1-JH1JH2.

Values taken from patent publication US10981911B2, “Imidazopyrrolopyridine as inhibitors of the JAK family of kinases” (Janssen Pharmaceutica NV, priority 2016, dated 2021).
